Results from US12364699B2, “Method of treating hair loss disorders” (Sun Pharmaceutical Industries, Inc., priority 2023, dated 2025).

How the values were obtained:
[1] = Renal impairment study: single dose PK of CTP-543 and metabolites C-21714, C-21717; conditions: single 12 mg oral dose of CTP-543; normal renal function N = 8; geometric mean (geometric CV %)
Source text: The study enrolled 8 subjects in the normal renal function cohort, and 8 subjects in the moderate impaired renal function cohort.
The primary endpoint of this study was single dose PK exposure parameters: Cmax, AUC(0-Tlast), and AUC(0-∞).
The secondary endpoints of this study were: • Adverse Events, clinical laboratory findings, physical examinations, ECGs, and vital signs. • Other PK parameters, such as, but not limited to: Tmax, λz, t1/2, CL/F, and Vz/F.
(§1) All subjects had samples collected for PK.
PK parameters were determined using non-compartmental analysis (NCA) methods based on individual plasma concentration-time data for all PK analytes.

plasma protein = assay: Renal impairment study: plasma protein binding of CTP-543; type: in vitro ADME, human; conditions: 2 hours post-dose; moderate renal impairment vs matched controls with normal renal function
Source text: as §1

[2] = system: adult subjects with moderate to severe AA; assay: Phase III trial: Hair Satisfaction Patient Reported Outcome (SPRO); type: in vivo, human; conditions: for percentage of subjects with a ≥2 point change from baseline on SPRO: 12 mg BID
Source text: The SPRO is a single-item questionnaire answered by the subject and designed to measure how satisfied Alopecia Areata subjects are with their hair at the time of the assessment. Subjects answer questions on a scale of 1 to 5, representing “Very satisfied” to “Very dissatisfied.” Satisfaction categories 1-5 of the scale were defined as follows: 1=“Very Satisfied”; 2=“Satisfied”; 3=“Neither Satisfied nor Dissatisfied”; 4=Dissatisfied”; and 5=“Very Dissatisfied”.
The results of the SPRO was analyzed in three different ways: 1) the percentage of responders, 2) the change from baseline, and 3) the percentage of subjects achieving a ≥2.0 point change from baseline.
A Phase III trial was conducted to assess the efficacy and safety of CTP-543 in adult subjects with moderate to severe AA. Approximately 440 adult male and female subjects 18 to 65 years of age, inclusive, with moderate to severe AA participated in the study. Subjects with definitive diagnosis of AA, and at least 50% hair loss, as defined by a SALT score ≥50, who met all of the inclusion criteria and none of the exclusion criteria participated in the study.
The Screening Period lasted up to 28 days prior to initiation of study drug. […] Randomization was stratified by scalp hair loss into 1 of the following 2 categories: 1) partial scalp hair loss (SALT ≥50 and <95), 2) complete or near complete scalp hair loss (SALT ≥95).
The key secondary efficacy endpoints were the percentage of responders (defined as “satisfied” or “very satisfied”) on the Hair Satisfaction Patient Reported Outcome (SPRO) scale at Week 24, 20, 16, 12, and 8.
The Hair Satisfaction Patient Reported Outcome (SPRO) was also determined based on the 5-point SPRO scale from baseline through Week 24 among primary endpoint responders. The subjects that received a SALT score ≤20 at Week 24 in the THRIVE-AA1 and THRIVE-AA2 trials were included in the analysis. […]
The SPRO was evaluated in 3 different ways: the percentage of responders, the change from baseline, and the percentage of subjects achieving a ≥2.0 point change from baseline.

subjects with AA [3] = assay: Open-label extension (OLE) studies: SALT score; type: in vivo, human; conditions: 12 mg BID in OLE, placebo in the earlier studies, 52 weeks
Source text: Subjects completing 24 weeks of treatment with […]
(§2) The qualifying clinical trials including the following: 1. NCT03137381; 2. NCT03811912; 3. NCT03941548; 4. NCT04784533; 5. NCT04518995; and 6. NCT04797650 (all available a at https://clinicaltrials.gov).
The OLE Efficacy Population is defined as all subjects who received at least one dose of deuruxolitinib and had at least one post-baseline SALT assessment in OLE. The data analyses include subjects' data from the qualifying trial. Missing SALT scores were not imputed. The number of subjects decreases over time due to missing data, patient discontinuations, or subjects not yet at the later timepoints. Any SALT data after a qualifying dose change in the OLE was censored for all figures included here, except those showing the overall treatment sequence. A “qualifying dose change” referred to herein can be placebo in any qualifying trial to any dose of deuruxolitinib in the OLE (includes subjects who switched doses), or any dose of deuruxolitinib in a qualifying trial to any dose of deuruxolitinib in the OLE. Various analyses using SALT scores were conducted to best estimate the overall long-term effect of deuruxolitinib considering the issues with dose changes and decreasing patient numbers over time. “Any Dose” analysis tracks all active subjects over time pooled across the two doses. […]

subjects with AA [4] = assay: Open-label extension (OLE) studies: safety; type: in vivo, human
Source text: as §2

[2H]C1([2H])C([C@@H](CC#N)n2cc(-c3ncnc4[nH]ccc34)cn2)C([2H])([2H])C([2H])([2H])C1([2H])[2H] [CTP-543, (R)-3-(4-(7H-pyrrolo[2,3-d]pyrimidin-4-yl)-1H-pyrazol-1-yl)-3-(cyclopentyl-2,2,3,3,4,4,5,5-d8) propanenitrile]
Clast [1]: 0.898 (116.3) ng/mL | plasma protein binding, difference between cohorts (plasma protein): no meaningful differences | SPRO Responders: Yes ([2]; 12 mg BID (N = 127), Week 24, non-missing data): 62 (51.7) n (%) | percentage of subjects with a ≥2 point change from baseline on SPRO ([2]; week 16, non-missing data): 57.4% | percentage of subjects with a ≥2 point change from baseline on SPRO ([2]; week 24, non-missing data): 61.7% | mean SALT score (subjects with AA [3]): 43.0 | number of serious treatment-related TEAEs (subjects with AA [4]; OLE studies): remains low | tolerability (subjects with AA [4]; OLE studies): generally well tolerated | subjects with related thrombotic events (subjects with AA [4]; all at the 12 mg BID dose, following ≥52 weeks of dosing): four | treatment-emergent adverse event findings (subjects with AA [4]; integrated analyses): consistent with the safety profiles observed for other JAK inhibitors
